Values belong to the molecule of their own block, whether it stands above or below them.
Legend:
Type in all cases: biochemical
[1] = Reaction of the enzyme on sucrose alone (HPAEC-PAD, HPSEC); conditions: no acceptor
Source text: The determination of the enzymatic activity of the polypeptide according to the invention can be determined by methods known to those skilled in the art, such as by use of the High Performance Liquid Chromatography Technique on reaction products with the polypeptide of the invention (MOULIS et al., J. Biol. Chem, 2006) or assay of reducing sugars by the method in dinitrosalycilic acid (SUMNER & HOWELL, 1935). More specifically, this enzymatic activity is expressed in glucansucrase units which represents the amount of enzyme which liberates one μmol of fructose per minute at 30° C. with a concentration of 100 g·L−1 sucrose and a buffer at pH 5.2 comprising 50 mM sodium acetate. This activity is preferably determined by measuring the initial rate of production of reducing sugars (fructose) by using the DNS method (SUMNER & HOWELL). To do this, a standard range of 0-2 g·L−1 of fructose is established. During kinetics, 100 μl of reaction medium are then sampled and the reaction is stopped by adding an equal volume of reagent. The samples were then heated for 5 min at 95° C., cooled in ice, diluted in half with water and the absorbance is read at 540 nm.
To characterise the functional properties of this putative transglucosylase, the enzyme was first implemented on sucrose alone, a natural substrate of enzymes of the GH70 family.
More specifically, monosaccharides, disaccharides, and small oligosaccharides (degree of polymerisation less than 20) were separated and quantified by HPAEC-PAD (High Performance Anion Exchange Chromatography with Pulsed Amperometric Detection) on column Dionex CarboPac PA-100. A sodium acetate gradient of 6 to 300 mM in 36 min, containing 150 mM of sodium hydroxide used to separate glucose, fructose, sucrose, leucrose, isomaltooligosaccharides, etc. Standard ranges of 5, 10, 15 and 20 mg·kg-1 of these sugars were performed to allow quantification. These samples were diluted for a total sugar concentration of 25 mg·kg-1. […]

[2] = Acceptor reaction with sucrose and dextran 1500 Da; α-1,3 connections by proton NMR; conditions: for factor multiplying the activity of the enzyme on addition of dextran 1500 Da as acceptor: compared to the activity measured on sucrose alone
Protocol: While nothing presaged that this protein had still an activity, the latter (as well as its truncated form) was also incubated in the presence of sucrose and a linear dextran (glucan composed exclusively of α-1,6 bonds) of a molecular weight of 1500 Da.
(§1) We incubated for 16 h at 30° C., enzyme in sucrose (from 25 g/L to 170 g/L) in the presence of dextrans of variable molecular weight (from 1500 Da to 2.10^6 Da) and of varying concentration of 30 g/L to 100 g/L.; the sucrose/acceptor (M/M) ratio varies depending on the desired connection rate in α-1,3. The reaction medium was buffered with a solution with final sodium acetate with 50 mM, pH 5.2. A sample at initial and final times of the reaction was conducted, heated at 95° C. for 5 minutes to stop the reaction and analysed by various chromatographic (HPAEC-PAD, HPSEC) and structural (proton NMR) techniques.
More specifically, monosaccharides, disaccharides, and small oligosaccharides (degree of polymerisation less than 20) were separated and quantified by HPAEC-PAD (High Performance Anion Exchange Chromatography with Pulsed Amperometric Detection) on column Dionex CarboPac PA-100. A sodium acetate gradient of 6 to 300 mM in 36 min, containing 150 mM of sodium hydroxide used to separate glucose, fructose, sucrose, leucrose, isomaltooligosaccharides, etc. Standard ranges of 5, 10, 15 and 20 mg·kg-1 of these sugars were performed to allow quantification. These samples were diluted for a total sugar concentration of 25 mg·kg-1.
Analyses by HPSEC (High Performance Size Exclusion Chromatography-) were used to estimate the molecular weight of oligosaccharide populations or of polymers synthesised during the reactions. The separation was done using two columns SHODEX (OH-Pack SB-805 and 802.5) arranged in series. Solutions of 1, 2.5, 5 and 10 gL−1 sucrose, fructose, maltoheptaose, Dextran 11.3 kDa, 68.4 kDa, 503 kDa, 2000 kDa served as benchmarks. The samples were diluted 10 times to reach a maximum concentration of 10 g·kg-1. A solution of 0.45 M NaNO3+1% (v/v) ethylene glycol in 0.3 mL·min-1 is used as an eluent, and the samples should be diluted in the mobile phase. Column and precolumn were maintained at 70° C., detection is performed by refractometry.
(§2) For the NMR analyses, the synthesised polymers were stored at −80° C. overnight and then be freeze-dried (CHRIST ALPHA apparatus 2-4). 10 mg of the powder obtained are then dissolved in 0.5 mL of deuterated water and analysed by proton NMR. The 1H NMR spectra were acquired on a spectrometer BRUKER AVANCE (500 MHz). The data were then treated with the TOPSPIN 3.0 software.

[3] = Acceptor reaction with sucrose and higher molecular weight dextrans; proton NMR; conditions: dextran 68.4 kDa, 503 kDa and 2×10^6 Da
Protocol: as §1, §2
Tests were performed out on particular dextran 68.4 kDa, 503 kDa and 2×10^6 Da. Based on proton NMR analyses, the high molecular weight dextrans have 50% of α-1,3 bonds (FIGS. 7 and 8). Here again we find the comb-like structure described in the '80 s in the work on the native glucan produced by the strain.

[4] = Screening of a library of acceptors with sucrose; conditions: FOS and XOS as acceptors
Protocol: The enzyme α-1,3 BrS is put in the presence of its natural substrate (sucrose) and a panel of different acceptors, including dextrans connected in α-1.2 (BRISON et al., 2009), of mutans, of alternans, of reuterans, of fructans and of fructooligosaccharides, of polyphenols, of flavonoids, of amino acids. The reaction products are analysed by various chromatographic techniques (mass spectrometry, HPAEC-PAD) and by NMR.

Molecule: GH L. fallax: orthologue protein from Leuconostoc fallax KCTC 3537, about 54% overall identity with α-1,3 BrS
ability to produce polymers of glucosyl units from sucrose alone [1]: inability to polymerise the glucosyl units
connection rate in α-1,3 on a dextran 1500 Da [2]: 37%

factor multiplying the activity of the enzyme on addition of dextran 1500 Da as acceptor [2]: 26
Molecule: α-1,3 BrS: transglucosylase of 1888 amino acids from L. citreum NRRL B-742 forming α-1,3 connections of glucosyl units on acceptors
ability to produce polymers of glucosyl units from sucrose alone [1]: no ability to produce polymers of glucosyl units
substitution rate (α-1,3) ([2]; sucrose/Dextran 1500 ratio 1/2): lower than 25%
rate of substitution (α-1,3) ([2]; sucrose/Dextran 1500 ratio 1/3): below 15%
degree of substitution (α-1,3) ([2]; sucrose/Dextran 1500 ratio above 1, increasing the substrate concentration): ~50%
degree of substitution (α-1,3) ([2]; sucrose/Dextran 1500 ratio greater than or equal to 1): about 40%
α-1,3 bonds of the high molecular weight dextrans after reaction [3]: 50%
glycosylation of oligosaccharide acceptors [4]: allows the glycosylation of oligosaccharides

factor multiplying the activity of the enzyme on addition of dextran 1500 Da as acceptor [2]: 26
rate of α-1,3 bonds according to the sucrose/dextran 1500 Da ratio, compared with the whole enzyme ([2]; truncated enzyme, same substrate (FIG. 6)): same results
B1: ΔPS ΔC-1313: form of α-1,3 BrS truncated of the signal peptide and C-terminal (position 1313) (protein)
chain: DTQTPVGTTQSQQDLTGQTGQDKPTTKEVIDKKEPVPQVSAQNVGDLSADAKTPKADDKQDTQPTNAQLPDQGNKQTNSNSDKGVKESTTAPVKTTDVPSKSVAPETNTSINGGQYVEKDGQFVYIDQSGKQVSGLQNIEGHTQYFDPKTGYQTKGELKNIDDNAYYFDKNSGNGRTFTKISNGSYSEKDGMWQYVDSHDKQPVKGLYDVEGNLQYFDLSTGNQAKHQIRSVDGVTYYFDADSGNATAFKAVTNGRYAEQTTKDKDGNETSYWAYLDNQGNAIKGLNDVNGEIQYFDEHTGEQLKGHTATVDGTTYYFEGNKGNLVSVVNTAPTGQYKINGDNVYYLDNNNEAIKGLYGINGNLNYFDLATGIQLKGQAKNIDGIGYYFDQNNGNGEYRYSLTGPVVKDVYSQHNAVNNLSANNFKNLVDGFLTAETWYRPAQILSHGTDWVASTDKDFRPLITVWWPNKDIQVNYLKLMQQIGILDNSVVFDTNNDQLVLNKGAESAQIGIEKKVSETGNTDWLNELLFAPNGNQPSFIKQQYLWNVDSEYPGGWFQGGYLAYQNSDLTPYANTNPDYRTHNGLEFLLANDVDNSNPVVQAEQLNWLYYLMNFGQITANDSNANFDSMRIDAISFVDPQIAKKAYDLLDKMYGLTDNEAVANQHISIVEAPKGETPITVEKQSALVESNWRDRMKQSLSKNATLDKLDPDPAINSLEKLVADDLVNRSQSSDKDSSTIPNYSIVHAHDKDIQDTVIHIMKIVNNNPNISMSDFTMQQLQNGLKAFYEDQHQSVKKYNQYNIPSAYALLLTNKDTVPRVFYGDMYQDYGDDLDGGQYMATKSIYYNAIEQMMKARLKYVAGGQIMAVTKIKNDGINKDGTNKSGEVLTSVRFGKDIMDAQGQGTAESRNQGIGVIVSNSSGLELKNSDSITLHMGIAHKNQAYRALMLTNDKGIVNYDQDNNAPIAWTNDHGDLIFTNQMINGQSDTAVKGYLNPEVAGYLAVWVPVGANDNQDARTVTTNQKNTDGKVLHTNAALDSKLMYEGFSNFQKMPTRGNQYANVVITKNIDLFKSWGITDFELAPQYRSSDGKDITDRFLDSIVQNGYGLSDRYDLGFKTPTKYGTDQDLRKAIERLHQAGMSVMADFVANQIYGLHADKEVVSAQHVNINGDTKLVVDPRYGTQMTVVNSVGGGDYQAKYGGEYLDTISKLYPGLLLDSNGQKIDLSTKIKEWSAKYLNGSNIPQVGMGYVLKDWNNGQYFHILDKEGQYSLPTQL
modifications: Delta PS, delta C-1313
ability to produce polymers of glucosyl units from sucrose alone [1]: no ability to produce polymers of glucosyl units
α-1,3 bonds of the high molecular weight dextrans after reaction [3]: 50%

From patent publication US11253537B2, “Polypeptide having the ability to form connections of glucosyl units in alpha-1,3 on an acceptor” (INSTITUT NATIONAL DE RECHERCHE POUR L'AGRICULTURE, …, priority 2013, dated 2022)
